According to US10730866B2, “Indole derivatives and use thereof” (Purdue Pharma L.P., priority 2014, dated 2020):

Each compound was assayed against human Nav1.7 (Homo sapiens (Human), UniProt Q15858) (assay: FLIPR or FLIPR TETRA sodium dye assay for sodium channel blocking activity). Conditions: recombinant HEK293 cells expressing human Nav1.7.
Chain of human Nav1.7 (Q15858 other isoform, or with tags, fused parts or gaps): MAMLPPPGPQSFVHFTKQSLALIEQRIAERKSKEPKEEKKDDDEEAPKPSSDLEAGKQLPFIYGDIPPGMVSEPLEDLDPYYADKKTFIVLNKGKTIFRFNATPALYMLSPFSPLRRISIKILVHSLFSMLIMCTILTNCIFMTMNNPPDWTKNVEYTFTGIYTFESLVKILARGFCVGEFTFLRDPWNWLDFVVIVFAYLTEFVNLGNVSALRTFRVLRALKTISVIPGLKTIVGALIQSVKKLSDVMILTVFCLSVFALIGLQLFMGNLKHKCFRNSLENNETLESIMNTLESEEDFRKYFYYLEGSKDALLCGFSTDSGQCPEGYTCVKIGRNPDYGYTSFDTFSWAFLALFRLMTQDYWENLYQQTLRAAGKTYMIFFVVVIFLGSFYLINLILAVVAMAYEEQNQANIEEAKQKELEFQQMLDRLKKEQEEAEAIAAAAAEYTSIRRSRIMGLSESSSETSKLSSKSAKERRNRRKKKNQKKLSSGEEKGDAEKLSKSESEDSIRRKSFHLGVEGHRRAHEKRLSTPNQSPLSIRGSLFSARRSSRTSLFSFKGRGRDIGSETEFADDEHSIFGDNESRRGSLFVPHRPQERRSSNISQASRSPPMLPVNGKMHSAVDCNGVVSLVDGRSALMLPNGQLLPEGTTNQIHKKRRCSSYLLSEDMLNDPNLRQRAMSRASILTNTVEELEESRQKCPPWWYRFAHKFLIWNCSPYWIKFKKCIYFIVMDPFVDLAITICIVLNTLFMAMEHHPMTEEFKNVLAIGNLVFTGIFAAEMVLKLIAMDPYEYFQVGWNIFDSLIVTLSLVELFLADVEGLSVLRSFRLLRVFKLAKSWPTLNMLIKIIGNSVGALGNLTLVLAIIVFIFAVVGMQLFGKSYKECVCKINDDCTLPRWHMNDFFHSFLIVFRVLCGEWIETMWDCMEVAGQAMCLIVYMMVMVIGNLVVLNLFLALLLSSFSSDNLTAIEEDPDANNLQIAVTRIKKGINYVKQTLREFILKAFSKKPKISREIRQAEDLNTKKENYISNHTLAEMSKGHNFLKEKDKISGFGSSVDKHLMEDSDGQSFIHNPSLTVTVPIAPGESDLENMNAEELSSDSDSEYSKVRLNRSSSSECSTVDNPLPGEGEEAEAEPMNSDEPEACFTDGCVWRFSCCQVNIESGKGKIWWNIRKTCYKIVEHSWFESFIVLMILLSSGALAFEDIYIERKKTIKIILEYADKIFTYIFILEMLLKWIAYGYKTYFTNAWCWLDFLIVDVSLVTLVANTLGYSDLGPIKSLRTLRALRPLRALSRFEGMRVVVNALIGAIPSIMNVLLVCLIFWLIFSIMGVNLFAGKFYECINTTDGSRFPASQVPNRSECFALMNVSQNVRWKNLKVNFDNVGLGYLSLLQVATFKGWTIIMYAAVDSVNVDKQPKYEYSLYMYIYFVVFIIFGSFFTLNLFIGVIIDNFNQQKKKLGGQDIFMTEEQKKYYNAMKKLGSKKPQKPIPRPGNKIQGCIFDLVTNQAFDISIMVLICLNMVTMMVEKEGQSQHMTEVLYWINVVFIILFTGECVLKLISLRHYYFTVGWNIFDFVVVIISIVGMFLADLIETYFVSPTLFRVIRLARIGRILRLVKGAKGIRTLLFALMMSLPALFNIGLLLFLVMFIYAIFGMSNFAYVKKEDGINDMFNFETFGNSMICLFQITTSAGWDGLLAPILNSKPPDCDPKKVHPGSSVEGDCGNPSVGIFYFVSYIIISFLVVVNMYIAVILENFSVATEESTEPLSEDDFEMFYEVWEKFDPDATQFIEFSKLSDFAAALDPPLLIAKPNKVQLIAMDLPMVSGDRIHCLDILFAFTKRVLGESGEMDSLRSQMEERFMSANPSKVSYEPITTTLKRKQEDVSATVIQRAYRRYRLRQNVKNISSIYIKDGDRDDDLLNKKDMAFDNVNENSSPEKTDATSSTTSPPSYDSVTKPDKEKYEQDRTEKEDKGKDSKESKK
Format: cell-based
Description: In vitro assays were performed in a recombinant cell line expressing cDNA encoding the alpha subunit (Nav1.7, SCN9a, PN1, NE) of human Nav1.7 (Accession No. NM_002977). The cell line was provided by investigators at Yale University (Cummins et al, J. Neurosci. 18(23): 9607-9619 (1998)). For dominant selection of the Nav1.7-expressing clones, the expression plasmid co-expressed the neomycin resistance gene. The cell line was constructed in the human embryonic kidney cell line, HEK293, under the influence of the CMV […] promoter, and stable clones were selected using limiting dilution cloning and antibiotic selection using the neomycin analogue, G418. Recombinant beta and gamma subunits were not introduced into this cell line. Additional cell lines expressing recombinant Nav1.7 cloned from other species can also be used, alone or in combination with various beta subunits, gamma subunits or chaperones.
Unless otherwise noted, cell culture reagents were purchased from Mediatech of Herndon, Va. The recombinant Nav1.7/HEK293 cells were routinely cultured in growth medium consisting of Dulbecco's […] essential medium containing 10% fetal bovine serum (FBS, Hyclone, Thermo Fisher Scientific, Logan, Utah), 100 U/mL penicillin, 100 μg/mL streptomycin, 2-4 mM L-glutamine, and […] G418. For natural, non-recombinant cell lines, the selective antibiotic was omitted, and additional media formulations can be applied as needed.
The final buffer consisted of 20 mM Hepes, pH 7.3, 1.261 mM CaCl2, 0.493 mM MgCl2, 0.407 mM Mg(SO)4, 5.33 mM KCl, 0.441 mM KH2PO4, 137 mM NaCl, 0.336 mM Na2HPO4 and […] D-glucose (Hanks et al., Proc. Soc. Exp. Biol. Med. 71:196 (1949)), and the simple formulation was typically the basic buffer throughout the assay (i.e., all wash and addition steps).
The fluorescence indicator used in the primary fluorescence assay was the cell permeant version of CoroNa™ Green (Invitrogen, Molecular Probes, Eugene, Oreg.), a dye that emits light in the fluorescence range (Harootunian et al., J. Biol. Chem. 264(32):19458-19467 (1989)). The intensity of this emission, but not the wavelength range, is increased when the dye is exposed to Na^+ ions, which it can bind with partial selectivity. Cells expressing Nav1.7 or other sodium channels were loaded with the CoroNa™ Green dye immediately in advance of the fluorescence assay, and then, after agonist stimulation, the mobilization of Na^+ ions was detected as the Na^+ ions flowed from the extracellular fluid into the cytoplasm through the activated sodium channel pores. The dye was stored in the dark as a lyophilized powder, and then an aliquot was dissolved immediately before the cell loading procedure, according to the instructions of the manufacturer, to a stock concentration of 10 mM in DMSO. It was then diluted in the assay buffer to a 4× concentrated working solution, so that the final concentration of dye in the cell loading buffer was 5 μM.
In the fluorescence assays, two agonists were used in combination, namely 1) veratridine; and 2) the venom from the yellow scorpion, Leiurus quinquestriatus hebraeus. Veratridine is an alkaloid small molecule that facilitates the capture of channel openings by inhibiting inactivation, and the scorpion venom is a natural preparation that includes peptide toxins selective for different subsets of voltage-gated sodium channels. These scorpion toxins inhibit the fast inactivation of their cognate target channels. Stock solutions of the agonists were prepared to 40 mM in DMSO (veratridine) and 1 mg/mL in dH2O (scorpion venom), and then diluted to make a 4× or 2× stock (depending on the particular assay) in assay buffer, the final concentration being 100 μM (veratridine) and 10 μg/mL (scorpion venom). Both of the agonists were purchased from Sigma Aldrich, St. Louis, Mo.
Test compounds were dissolved in DMSO to yield 10 mM stock solutions. […]
`NC(=O)c1cccc(-c2ccc3[nH]ccc3c2)n1` [Compound 29, 6-(1H-indol-5-yl)picolinamide] gave an IC50 of over 20 µM.
With `O=C(Nc1ccc(C(F)(F)F)cc1)c1cccc(-c2ccc3[nH]ccc3c2)n1` [Compound 32, 6-(1H-indol-5-yl)-N-(4-(trifluoromethyl)phenyl)picolinamide] the IC50 was 0.233 ± 0.035 µM.
`O=C(c1cccc(-c2ccc3[nH]ccc3c2)n1)N(c1ccc(C(F)(F)F)cc1)c1ccc(C(F)(F)F)cc1` [Compound 33, 6-(1H-indol-5-yl)-N,N-bis(4-(trifluoromethyl)phenyl)picolinamide] showed an IC50 of over 20 µM.
Work on `C[C@H](Nc1cc(C(N)=O)nc(-c2ccc3[nH]ccc3c2)n1)C(N)=O` [Compound 35, (S)-6-((1-amino-1-oxopropan-2-yl)amino)-2-(1H-indol-5-yl)pyrimidine-4-carboxamide] yielded an IC50 of over 20 µM.
For `NC(=O)c1cc(N[C@H]2CCNC2=O)nc(-c2ccc3[nH]ccc3c2)n1` [Compound 36, (S)-2-(1H-indol-5-yl)-6-((2-oxopyrrolidin-3-yl)amino)pyrimidine-4-carboxamide], the IC50 was over 20 µM.
`NC(=O)c1cc(O[C@H]2CCNC2=O)nc(-c2ccc3[nH]ccc3c2)n1` [Compound 37, (S)-2-(1H-indol-5-yl)-6-((2-oxopyrrolidin-3-yl)oxy)pyrimidine-4-carboxamide] gave an IC50 of over 20 µM.
With `COc1ccc(-c2nc3cc(-c4nc(N[C@H]5CCNC5=O)cc(C(N)=O)n4)ccc3n2-c2ccc(F)cc2)c(OC)c1` [Compound 42, (S)-2-(2-(2,4-dimethoxyphenyl)-1-(4-fluorophenyl)-1H-benzo[d]imidazol-5-yl)-6-((2-oxopyrrolidin-3-yl)amino)pyrimidine-4-carboxamide] the IC50 was 2.02 ± 0.146 µM.
Work on `NC(=O)c1cc(N[C@H]2CCNC2=O)nc(-c2ccc3c(c2)ncn3-c2ccc(C(F)(F)F)cc2)n1` [Compound 45, (S)-6-((2-oxopyrrolidin-3-yl)amino)-2-(1-(4-(trifluoromethyl)phenyl)-1H-benzo[d]imidazol-5-yl)pyrimidine-4-carboxamide] yielded an IC50 of 7.21 ± 0.562 µM.
`CC(C)Cn1ccc2cc(-c3nc(N[C@@H](C)C(N)=O)cc(C(N)=O)n3)ccc21` [Compound 47, (S)-6-((1-amino-1-oxopropan-2-yl)amino)-2-(1-isobutyl-1H-indol-5-yl)pyrimidine-4-carboxamide] gave an IC50 of 4.19 ± 0.862 µM.
For `OC[C@H](O)c1ccnc(-c2ccc3ncn(-c4ccc(C(F)(F)F)cc4)c3c2)n1` [Compound 50, (R)-1-(2-(1-(4-(trifluoromethyl)phenyl)-1H-benzo[d]imidazol-6-yl)pyrimidin-4-yl)ethane-1,2-diol], the IC50 was over 20 µM.
Compound `OC[C@@H](O)c1ccnc(-c2ccc3ncn(-c4ccc(C(F)(F)F)cc4)c3c2)n1` [Compound 51, (S)-1-(2-(1-(4-(trifluoromethyl)phenyl)-1H-benzo[d]imidazol-6-yl)pyrimidin-4-yl)ethane-1,2-diol] has an IC50 of 3.51 ± 0.733 µM.
`NC(=O)c1cccc(-c2ccc3c(ccn3Cc3ccc(C(F)(F)F)cc3)c2)n1` [Compound 56, 6-(1-(4-(trifluoromethyl)benzyl)-1H-indol-5-yl)picolinamide] was tested, and the IC50 was 0.23 ± 0.026 µM.
For `NC(=O)c1cccc(-c2ccc3c(ccn3S(=O)(=O)c3ccc(C(F)(F)F)cc3)c2)n1` [Compound 57, 6-(1-((4-(trifluoromethyl)phenyl)sulfonyl)-1H-indol-5-yl)picolinamide], the IC50 was 0.658 ± 0.078 µM.
`NC(=O)c1cccc(-c2ccc3c(ccn3CC3CCCCC3)c2)n1` [Compound 58, 6-(1-(cyclohexylmethyl)-1H-indol-5-yl)picolinamide] showed an IC50 of 0.237 ± 0.062 µM.
For `NC(=O)c1cccc(-c2ccc3c(ccn3S(=O)(=O)C3CCCCC3)c2)n1` [Compound 59, 6-(1-(cyclohexylsulfonyl)-1H-indol-5-yl)picolinamide], the IC50 was 0.927 ± 0.05 µM.
Work on `NC(=O)c1cccc(-c2ccc3c(ccn3Cc3ccc(F)cc3)c2)n1` [Compound 61, 6-(1-(4-fluorobenzyl)-1H-indol-5-yl)picolinamide] yielded an IC50 of 0.801 ± 0.052 µM.
For `Cc1ccc(Cn2ccc3cc(-c4cccc(C(N)=O)n4)ccc32)cc1` [Compound 62, 6-(1-(4-methylbenzyl)-1H-indol-5-yl)picolinamide], the IC50 was over 20 µM.
In the case of `NC(=O)c1cccc(-c2ccc3c(ccn3CCC3CCCCC3)c2)n1` [Compound 63, 6-(1-(2-cyclohexylethyl)-1H-indol-5-yl)picolinamide], the IC50 is reported as 1.12 ± 0.182 µM.
Work on `NC(=O)c1cccc(-c2ccc3c(ccn3Cc3ccncc3)c2)n1` [Compound 64, 6-(1-(pyridin-4-ylmethyl)-1H-indol-5-yl)picolinamide] yielded an IC50 of over 20 µM.
In the case of `NC(=O)c1cccc(-c2ccc3c(ccn3CCN3CCOCC3)c2)n1` [Compound 65, 6-(1-(2-morpholinoethyl)-1H-indol-5-yl)picolinamide], the IC50 is reported as over 20 µM.
Compound `Cc1noc(C)c1Cn1ccc2cc(-c3cccc(C(N)=O)n3)ccc21` [Compound 66, 6-(1-((3,5-dimethylisoxazol-4-yl)methyl)-1H-indol-5-yl)picolinamide] has an IC50 of 5.55 ± 0.376 µM.
For `CC(C)Cn1ccc2cc(-c3cccc(C(N)=O)n3)ccc21` [Compound 67, 6-(1-isobutyl-1H-indol-5-yl)picolinamide], the IC50 was 0.308 ± 0.078 µM.
In the case of `Cc1nc(Cn2ccc3cc(-c4cccc(C(N)=O)n4)ccc32)cs1` [Compound 68, 6-(1-((2-methylthiazol-4-yl)methyl)-1H-indol-5-yl)picolinamide], the IC50 is reported as 10 to 20 µM.
With `Cn1ccc2cc(-c3cccc(C(=O)Nc4ccc(C(F)(F)F)cc4)n3)ccc21` [Compound 75, 6-(1-methyl-1H-indol-5-yl)-N-(4-(trifluoromethyl)phenyl)picolinamide] the IC50 was 3.03 ± 0.837 µM.
`O=C(NC1CCCCC1)c1cccc(-c2ccc3[nH]ccc3c2)n1` [Compound 76, N-cyclohexyl-6-(1H-indol-5-yl)picolinamide] gave an IC50 of 0.167 ± 0.02 µM.
`O=C(Nc1ccc(C(F)(F)F)cc1)c1cccc(-c2ccc3[nH]ncc3c2)n1` [Compound 77, 6-(1H-indazol-5-yl)-N-(4-(trifluoromethyl)phenyl)picolinamide] was tested, and the IC50 was 2.7 ± 0.524 µM.
For `C[C@H](Nc1cc(C(=O)Nc2ccc(C(F)(F)F)cc2)nc(-c2ccc3occc3c2)n1)C(N)=O` [Compound 79, (S)-6-((1-amino-1-oxopropan-2-yl)amino)-2-(benzofuran-5-yl)-N-(4-(trifluoromethyl)phenyl)pyrimidine-4-carboxamide], the IC50 was over 20 µM.
`C[C@H](Nc1cc(C(=O)Nc2ccc(C(F)(F)F)cc2)nc(-c2ccc3[nH]ccc3c2)n1)C(N)=O` [Compound 80, (S)-6-((1-amino-1-oxopropan-2-yl)amino)-2-(1H-indol-5-yl)-N-(4-(trifluoromethyl)phenyl)pyrimidine-4-carboxamide] showed an IC50 of over 20 µM.
`O=C(Nc1ccc(C(F)(F)F)cc1)c1cccc(-c2ccc3occc3c2)n1` [Compound 81, 6-(benzofuran-5-yl)-N-(4-(trifluoromethyl)phenyl)picolinamide] showed an IC50 of 0.782 ± 0.044 µM.
`O=C(NCC1CCCCC1)c1cccc(-c2ccc3[nH]ccc3c2)n1` [Compound 83, N-(cyclohexylmethyl)-6-(1H-indol-5-yl)picolinamide] gave an IC50 of 0.18 ± 0.031 µM.
In the case of `O=C(c1cccc(-c2ccc3[nH]ccc3c2)n1)N1CCCC1` [Compound 84, (6-(1H-indol-5-yl)pyridin-2-yl)(pyrrolidin-1-yl)methanone], the IC50 is reported as over 20 µM.
`O=C(NC1CCCC1)c1cccc(-c2ccc3[nH]ccc3c2)n1` [Compound 85, N-cyclopentyl-6-(1H-indol-5-yl)picolinamide] gave an IC50 of 1.21 ± 0.242 µM.
In the case of `CC1CN(C(=O)c2cccc(-c3ccc4[nH]ccc4c3)n2)CC(C)O1` (stereo not shown) [Compound 86, (6-(1H-indol-5-yl)pyridin-2-yl)(2,6-dimethylmorpholino)methanone], the IC50 is reported as over 20 µM.
In the case of `O=C(Nc1nnn[nH]1)c1cccc(-c2ccc3[nH]ccc3c2)n1` [Compound 87, 6-(1H-indol-5-yl)-N-(1H-tetrazol-5-yl)picolinamide], the IC50 is reported as over 20 µM.
